Literature values, collected in patent publication US20110144207A1, “ARYL ALKYL CARBOXYLIC ACID SALTS, PROCESS FOR PREPARATION AND DOSAGE FORMS” (SHASUN CHEMICALS AND DRUGS LIMITED, priority 2008, published 2011).
Counter-ions that a name gives are not always drawn. Like-named read-outs stand apart in the source and are kept apart here. One block for each compound: values may come before it.

What was measured:
[1] = as described in EP application 1149828
[2] = compared with conventional ibuprofen

hygroscopic property ([1]; sodium salt): hygroscopic
SMILES: O=C(O)Cc1ccccc1Nc1c(Cl)cccc1Cl [diclofenac sodium salt]

Cmax (peak concentration) [2]: significantly higher
tmax (time to peak concentration) [2]: earlier
SMILES: CC(C)Cc1ccc(C(C)C(=O)O)cc1.O.O.[Na] (stereo not shown) [ibuprofen sodium dihydrate, Ibuprofen Sodium Dihydrate]

hygroscopic property ([1]; sodium salt hemihydrate): no hygroscopic property
SMILES: O=C(O)Cc1ccccc1Nc1c(Cl)cccc1Cl [diclofenac sodium salt hemihydrate]
